Assay results published in patent EP0320630A1, “Enantiometric iodobenzamides” (THE VANDERBILT UNIVERSITY, priority 1987, dated 1989).

How the values were obtained:
dopamine D-2 receptor [1] = biological target: T1, dopamine D-2 receptor (Rattus norvegicus, UniProt P61169); experiment: Blocking of [3H](S)-sulpiride binding to rat striatal membranes; conditions: radioligand [3H](S)-sulpiride at 5.0 nM; rat striatal membrane preparation; 30 min at 37 °C
T1 construct: 90 µL of the striatal membrane preparation; from tissue; host or cells: rat striatum (membrane homogenate)
T1 sequence (P61169 whole entry): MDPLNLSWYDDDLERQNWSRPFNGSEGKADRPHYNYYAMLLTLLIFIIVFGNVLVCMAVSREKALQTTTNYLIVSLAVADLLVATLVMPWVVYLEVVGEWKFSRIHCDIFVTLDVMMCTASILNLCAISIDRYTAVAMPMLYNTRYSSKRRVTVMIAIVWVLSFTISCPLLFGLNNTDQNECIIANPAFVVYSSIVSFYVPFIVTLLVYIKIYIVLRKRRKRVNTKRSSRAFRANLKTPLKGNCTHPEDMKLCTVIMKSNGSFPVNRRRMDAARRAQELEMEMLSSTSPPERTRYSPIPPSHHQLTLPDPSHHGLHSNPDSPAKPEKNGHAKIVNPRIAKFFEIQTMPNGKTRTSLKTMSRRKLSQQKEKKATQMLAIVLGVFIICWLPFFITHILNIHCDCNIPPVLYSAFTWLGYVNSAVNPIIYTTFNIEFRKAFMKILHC
Description: (§1) The procedure, described by de […]., and Beart P.M., Eur. J. Pharmacol. 106 133-139 (1984), is as follows: Male Sprague-Dawley rats (150-200 g) were killed by decapitation and their brains quickly removed and dissected on ice. Striata were dissected and homogenized in 40 vol of ice-cold 50 mM Tris-HCl buffer (pH 7.4) containing 120 mM sodium chloride, 5 mM potassium chloride, 2 mM calcium chloride, and 1 mM magnesium chloride using a Brinkman Polytron. The suspension was centrifuged at 30,000 x g for 10 min at 4 °C, and the pellet was resuspended in 40 vol of fresh buffer. The suspension was incubated at 37 °C for 10 min, centrifuged again at 30,000 x g for 10 min at 4 °C, and the final pellet was resuspended with the polytron in 200 vol of ice cold buffer. […] Tubes were incubated for 30 min at 37 °C, poured over Whatman GF/B filters under vacuum, and the filters were rinsed three times with 4 mL of ice cold buffer.

dopamine D-2 receptor [2] = biological target: T1, dopamine D-2 receptor; experiment: Blocking of [3H]spiperone binding to rat striatal membranes; conditions: radioligand [3H]spiperone at 0.5 nM; rat striatal membrane preparation; 30 min at 37 °C
Description: as §1

IC50 (dopamine D-2 receptor [1]) [nM]	IC50 (dopamine D-2 receptor [2]) [nM]	Compound
145 ± 5	560 ± 200	CCN1CCC[C@@H]1CNC(=O)c1cc(I)ccc1OC
3.3 ± 0.9	16.4 ± 4.9	CCN1CCC[C@H]1CNC(=O)c1cc(I)ccc1OC
